Measurements taken from ChEMBL document CHEMBL1157986, “Vismiaphenones D-G, new prenylated benzophenones from Vismia cayennensis” (J Nat Prod, 1999).
Converted amounts (≈) assume the structure as drawn.

What was measured:
CEM-SS = assay: Cytotoxicity against human CEM-SS cells; format: functional, cell-based
[1] = tested on: Human immunodeficiency virus; assay: Antiviral activity against HIV; format: functional, organism-based; settings: Human immunodeficiency virus 1

EC50 [1]: 11 µg/mL (≈ 27.7 µM)
Compound: COc1c(CC=C(C)C)c(O)c(C(=O)c2ccc(O)cc2)c(O)c1CC=C(C)C [VISMIAPHENONE D]
IC50 (CEM-SS): 30 µg/mL (≈ 75.7 µM)
